Reference: US20100119506A1, “Effectors of PAR-2 Activation and Their Use in the Modulation of Inflammation” (BOEHRINGER INGELHEIM INTERNATIONAL GMBH, priority 2008, published 2010)

System: trans vivo delayed type hypersensitivity (DTH)
Experiment: Trans vivo DTH model (footpad swelling)
Format: in vivo, mouse
Details: 10 mg/kg; 24 hours after PBMCs and TT
Method: FIGS. 8A and 8B show the ability of anti-PAR-2 antibodies Par-B (FIG. 8A) and Par-D (FIG. 8B) to inhibit trans vivo DTH. Shown are the changes in paw thickness after injection of human peripheral blood mononuclear cells alone (PBMC) or after injection of PBMCs and […] (TT). Mice were pretreated (ip at −3 hours) with PBS, hu IgG4 (20 mg/kg), or anti-PAR-2 antibody. Percent inhibition is shown at top of the bars. *p<0.05 as compared to PBS.
The trans vivo delayed type hypersensitivity (DTH) is a validated model of human T cell mediated inflammation in mice (Warnecke, G. et al. (2007) Transplantation 84(3):392-399; Pelletier, R. P. et al. (Mar. 28, 2007, Epub) Hum. Immunol. 68(6):514-522; Carrodeguas, L. et al. (1999) Hum. Immunol. 60(8):640-651). In this assay, human PBMCs from tetanus-sensitized donors are isolated and co-injected with tetanus toxoid (TT) into the mouse footpad. The swelling response that develops in the footpad is measured at 24 hours. This swelling response is dependent on antigen-specific activation of the human T cells as well as on the inflammation mediated by mouse cells.
Shown in FIG. 8A and FIG. 8B, are the changes in footpad thickness 24 hours after injection of PBMCs and TT.

SMILES: C[C@@H]1C[C@H]2[C@@H]3CCC4=CC(=O)C=C[C@]4(C)[C@@]3(F)[C@@H](O)C[C@]2(C)[C@@]1(O)C(=O)CO [dexamethasone, reference compound]
- inhibition of footpad swelling response: approximately 80%
